Measured values as given in patent US8354400B2, “Benzoxazole compounds and methods of use” (Eisai R&D Co., Ltd., priority 2008, dated 2013).
Entries after “also recorded” stand apart in the source; their conditions may differ.

Key:
Format in all cases: in vivo
[1] = test system: collagen induced arthritis in male DBA/1J mice; experiment: Type II collagen induced arthritis model; conditions: 5 days per week from day 9
Description: The type II collagen induced arthritis model was used for the purpose of in vivo evaluation of Compound 2 for the treatment of arthritis. In this model, arthritis was induced in male DBA/1J (Jackson Labs) mice using complete Freund's adjuvant. A first priming/immunization dose of 300 μg of bovine type II collagen emulsified in an equal volume of complete Freund's adjuvant is injected subcutaneously (s.c.) at least 5 mm from the base of the tail.
Starting on day 9 after immunization and each day for 5 days per week thereafter, each mouse was dosed orally with 6 mg/kg, 20 mg/kg, or 60 mg/kg of Compound 2 or placebo 5 days per week.
A second immunization dose was administered 21 days after the first immunization by s.c. injection above the first immunization site of 200 μg of bovine type II collagen emulsified in an equal volume of incomplete Freund's adjuvant. To further promote arthritis progression, animals receive an intraperitoneal injection of lipopolysaccharide (LPS) (1 μg/mouse in PBS) three days after the second immunization.
At 21, 25, 28, and 31 days after the first immunization dose, the animals were examined for evidence of paw swelling and assigned an arthritis score at each time point.

MRL/lpr mice = experiment: MRL/lpr spontaneous lupus model, Experiment 2; conditions: 12 weeks, high dose (60 mg/kg p.o.)
Description: In this SLE experiment, dosing, groups were as described in Table 4 below. Two dose levels of Compound 23 were compared to HCQ and cyclophosphamide (Cytoxan®). HCQ and cyclophosphamide are currently used in the treatment of cutaneous and systemic lupus, respectively. […] Sera were assayed at a 1:600 dilution in PBS. (Mouse Anti-dsDNA Total Ig Qualitative ELISA kits, Alpha Diagnostic International). Dosing was conducted by either oral (p.o.) or intraperitoneal (i.p.) administration.

[2] = test system: MRL/MpJ-faslpr/J mice (MRL/lpr); experiment: MRL/MpJ-faslpr/J spontaneous lupus model, Experiment 1
Description: In this experiment, MRL/MpJ-faslpr/J mice (“MRL/lpr”) obtained from Jackson Laboratories were dosed orally with Compound 23 at 20 or 60 mg/kg in water. MRL/lpr mice have a defect in lymphocyte death and spontaneously develop autoantibodies including the anti-nuclear antibodies found in human systemic lupus erythematosus (SLE). Dosing was performed daily five days a week beginning at 5 weeks of age. Blood and urine samples were taken prior to dosing on day one and every three to four weeks thereafter. An ELISA assay was used to measure serum anti-dsDNA before and after 7 weeks of dosing. The assay was conducted using a Mouse Anti-dsDNA Total Ig Qualitative ELISA kit (Alpha Diagnostic International, San Antonio. TX).
Anti-nuclear antibodies (“ANA”) in this experiment were also examined by exposing fixed […] cells, obtained as fixed samples on slides from Antibodies Inc., to diluted serum from the mice dosed with Compound 23 at 20 or 60 mg/kg, as described above, and staining for mouse immunoglobulin using the kit reagents supplied by Antibodies Inc. according to the kit instructions. Intensity of fluorescent staining was then read by microscope, and scores were assigned values between − and +++. Sample identifications were blinded for data collection.

SMILES | paw swelling (arthritis score) ([1]; 60 mg/kg oral) | paw swelling (arthritis score) ([1]; 6 and 20 mg/kg oral) | difference in mean dsDNA level between vehicle and compound (MRL/lpr mice) | serum anti-dsDNA, mean OD450 versus vehicle ([2]; MRL/lpr mice, 10 weeks of dosing) | serum anti-dsDNA versus vehicle ([2]; MRL/lpr mice, 12 weeks and beyond) | dosage-related toxicity (general appearance, body weight) ([2]; MRL/lpr mice, 20 or 60 mg/kg oral) | serum anti-dsDNA, mean OD450 versus vehicle ([2]; MRL/lpr mice, 20 or 60 mg/kg oral, 7 weeks of dosing) | anti-nuclear antibody (ANA) development ([2]; MRL/lpr mice, 20 or 60 mg/kg oral, 4, 10, 12 weeks of dosing) | anti-dsDNA in the MRL/lpr model of SLE (summary) ([2]; daily oral dosing with 60 and 20 mg/kg)
CN(C)CCCOc1ccc(-c2nc3ccc(OCCCN(C)C)cc3o2)cc1 [Compound 2] | not clear | Suppression of paw swelling | – | – | – | – | – | – | –
c1cc(-c2nc3ccc(OCCCN4CCCC4)cc3o2)ccc1OCCCN1CCCC1 [Compound 23] | – | – | statistically significant difference | statistical difference was still observed | more similar to vehicle-treated animals | No evidence of dosage-related toxicity | statistically significant suppression | dose-dependent suppression of ANA development; also recorded: dose-dependent inhibition | suppression of anti-dsDNA
